Source: patent US20160346255A1, “METHODS, AGENTS AND COMPOSITIONS FOR TREATMENT OF INFLAMMATORY CONDITIONS” (Betanien Hospital, priority 2014, published 2016)
Non-standard residues stand in square brackets, D forms with d. Residues, ends and D or L forms follow the SMILES beside them. *: point of attachment. dPhe(4-NHCONH2) = NC(=O)Nc1ccc(C[C@@H](N)C(=O)O)cc1; Dihydroorotyl(S) = O=C1C[C@@H](C(=O)*)NC(=O)N1; dPhe(4-Cl) = N[C@H](Cc1ccc(Cl)cc1)C(=O)O; Phe(4-NH2) = Nc1ccc(C[C@H](N)C(=O)O)cc1; d2Nal = N[C@H](Cc1ccc2ccccc2c1)C(=O)O; Lys(iPr) = CC(C)NCCCC[C@H](N)C(=O)O; d3Pal = N[C@H](Cc1cccnc1)C(=O)O

System: patients with risk factors for cardiovascular disease
Test: Cardiovascular disease risk factors in patients taking degarelix
Format: in vivo, human
Details: for Blood pressure: baseline 151/90; for Fasting glucose (4.0-6.0): 8.9 in April 2014; for HDL (1.0-2.7 mmol/L): Patient 7, baseline 0.68
Description: In our patient group who were offered degarelix, some patients had risk factors for cardiovascular disease, metabolic syndrome, lipidemia or hypoalphalipoproteinemia (low HDL). None of these patients had recently started medications prior to the GnRH antagonist that could explain the changes in blood pressure, HbA1c, fasting glucose or lipids. See Example 1 for patient information.
Patient 1 with metabolic syndrome fulfilling 3 of 5 metabolic risk factors (large waistline >35 inches, high blood pressure and high fasting glucose). […] High HbA1c, contributes to CVD (normal reference range 4.3-6.1%) At baseline 6.4%, high. By 2 weeks HbA1c had normalized to 6.1%. This continues to be normal, and at 8 months is 5.7%. Their fasting glucose was 6.6 mmol/L in September 2014, by October 2014 this was reduced to 6.3 mmol/L. • 2. High blood pressure, contributes to CVD at baseline 151/90 (measured at several times prior to baseline with repeatedly high blood pressure). Blood pressure by 6 months 120/71, and this continues to be normal. At their last check up at 8 months, their blood pressure was 118/78. • 3. No other abnormalities at baseline for assessment
Patient 4 • High HbA1c, contributes to CVD (normal reference range 4.3-6.1%). At baseline the HbA1c was 6.9%, high. By 1 month the HbA1c had reduced to 6.6, by 2 months 6.4, and by 4 months 6.2, and by 12 months it was normalized to 5.9. Their hospital records from a nearby hospital stated that their fasting glucose was high at 8.5 mmol/L (reference range 4.0-6.0) in December 2013, and by April 2014 this was higher at 8.9. They asked the patient's family doctor to initiate treatment due to the development of diabetes type II. Their fasting glucose had reduced to 6.6 mmol/L by 3 months after starting degarelix, and by 4 months has now normalised to 6.0 mmol/L. No other abnormalities baseline for assessment
Patient 7 • 1. Low HDL, contributes to CVD (normal reference range 1.0-2.7 mmol/L). Mora et al. investigated the link between cholesterol and cardiovascular events in women and found baseline HDL level was consistently and inversely associated with incident coronary and CVD events. A low HDL cholesterol level is thought to accelerate the development of atherosclerosis because of impaired reverse cholesterol transport and possibly because of the absence of other protective effects of HDL, such as decreased oxidation of other lipoproteins. • They had low HDL at baseline 0.68 mmol/L in September 2014. They received their loading dose of degarelix 240 mg s.c. in September 2014. By 1 week, their HDL level had increased to 0.73, and by 2 weeks it continued to increase towards normal at 0.75. By 3 weeks it had normalized to 1.13 mmol/L and at 4 weeks is normal at 1.19 mmol/L. • 2. No other abnormalities at baseline for assessment

Question: For `CC(=O)N[C@H](Cc1ccc2ccccc2c1)C(=O)N[C@H](Cc1ccc(Cl)cc1)C(=O)N[C@H](Cc1cccnc1)C(=O)N[C@@H](CO)C(=O)N[C@@H](Cc1ccc(NC(=O)[C@@H]2CC(=O)NC(=O)N2)cc1)C(=O)N[C@H](Cc1ccc(NC(N)=O)cc1)C(=O)N[C@@H](CC(C)C)C(=O)N[C@@H](CCCCNC(C)C)C(=O)N1CCC[C@H]1C(=O)N[C@H](C)C(N)=O` [degarelix] (Ac-[d2Nal][dPhe(4-Cl)][d3Pal]S[Phe(4-NH2)](Dihydroorotyl(S))[dPhe(4-NHCONH2)]L[Lys(iPr)]P[dA]-NH2), which Fasting glucose (Patient 1, October 2014, 6.6 mmol/L in September 2014) is on record?
Answer: 6.3 mmol/L

Question: What about the “Criteria for metabolic syndrome” value (Patient 1, after degarelix, 3 of 5 risk factors before) of the same molecule?
Answer: no longer fulfills the criteria

Question: And the “HbA1c (4.3-6.1%)” value (Patient 1, at 8 months, baseline 6.4%)?
Answer: 5.7%

Question: And the Blood pressure (Patient 1, at 8 months)?
Answer: 118/78

Question: And the “HbA1c (4.3-6.1%)” value (Patient 1, by 2 weeks, baseline 6.4%)?
Answer: 6.1%

Question: What about the Blood pressure (Patient 1, by 6 months) of the same molecule?
Answer: 120/71

Question: What about the “HbA1c (4.3-6.1%)” value (Patient 4, by 1 month, baseline 6.9%) of the same molecule?
Answer: 6.6%

Question: What about the “HbA1c (4.3-6.1%)” value (Patient 4, by 2 months, baseline 6.9%) of the same molecule?
Answer: 6.4%

Question: What about the “Fasting glucose (4.0-6.0)” value (Patient 4, by 3 months) of the same molecule?
Answer: 6.6 mmol/L

Question: What about the “Fasting glucose (4.0-6.0)” value (Patient 4, by 4 months, normalised) of the same molecule?
Answer: 6.0 mmol/L

Question: And the “HbA1c (4.3-6.1%)” value (Patient 4, by 4 months, baseline 6.9%)?
Answer: 6.2%

Question: What about the “HbA1c (4.3-6.1%)” value (Patient 4, by 12 months, normalized, baseline 6.9%) of the same molecule?
Answer: 5.9%

Question: And the “HDL (1.0-2.7 mmol/L)” value (at 4 weeks)?
Answer: 1.19 mmol/L

Question: And the “HDL (1.0-2.7 mmol/L)” value (by 1 week)?
Answer: 0.73 mmol/L

Question: What about the “HDL (1.0-2.7 mmol/L)” value (by 2 weeks) of the same molecule?
Answer: 0.75 mmol/L

Question: And the “HDL (1.0-2.7 mmol/L)” value (by 3 weeks, normalized)?
Answer: 1.13 mmol/L
